Earlier results on 12 compounds are cited in US8974795B2, “Controlled release formulation based on hematin anhydride crystals for the induction of an innate immune reaction” (priority 2010, dated 2015).

Where two headings read alike, the source gives them in different places.

[1] abbreviates: Table 1, medium strong organic acids.

For `O=C(O)CCc1cccc(Cl)c1` [3-(3-Chlorophenyl)propanoic acid], the pKa under setting [1] is on record as 4.59.

`O=C(O)Cc1cccc(Cl)c1` [3-Chlorophenylacetic acid]: the pKa under setting [1] is 4.14.

Take `O=C(O)Cc1ccc(Cl)cc1` [4-Chlorophenylacetic acid]: the pKa under setting [1] is given as 4.19.

Take `C=CC1=C(C)c2cc3[n-]c(cc4[n-]c(cc5nc(cc1n2)C(C)=C5C=C)c(C)c4CCC(=O)O)c(CCC(=O)O)c3C.[Fe+2]` [heme]: the pKa result is “about 4.5”.

With `O=C(O)C(c1ccccc1)c1ccccc1` [Diphenylacetic acid], the pKa under setting [1] is given as 3.94.

Regarding `O=C(O)CCc1ccc(Cl)cc1` [3-(4-Chlorophenyl)propanoic acid], the pKa under setting [1] is 4.61.

Take `O=C(O)CCc1ccccc1Cl` [3-(2-Chlorophenyl)propanoic acid]: the pKa under setting [1] is 4.58.

`O=C(O)Cc1ccccc1Cl` [2-Chlorophenylacetic acid]: under setting [1], the pKa is given as 4.07.

In the case of `CC(C(=O)O)c1ccccc1` (stereo not drawn) [α-Phenylpropanoic acid], the pKa under setting [1] is 4.64.

Consider `O=C(O)C(O)c1ccccc1` (racemic) [DL-Mandelic acid], for which, under setting [1], the pKa is 3.85.

As for `CC(Cl)CC(=O)O` (stereo not drawn) [3-Chlorobutanoic acid], under setting [1], the pKa was 4.05.

As to `Cc1cc(C)cc(C(=O)O)c1` [Mesitylenic acid], under setting [1], the pKa is on record as 4.32.
